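Assay format: 96-well plates, 48-hour exposure. GI50 is the concentration that inhibits growth by half. TGI: total growth inhibition.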
Assays:
Experiment in all cases: NCI-60 cell line screen, 48 h; in the data active = GI50 below about 0.43 µM; inactive = the rest
IGROV1 ovarian = system: IGROV1 ovarian
A549 NSCLC = system: A549 NSCLC
OVCAR-8 ovarian = system: OVCAR-8 ovarian
OVCAR-4 ovarian = system: OVCAR-4 ovarian
NCI-H226 lung = system: NCI-H226 lung
A498 renal = system: A498 renal
MDA-MB-231 breast = system: MDA-MB-231 breast
MDA-MB-435 = system: MDA-MB-435
SNB-19 CNS = system: SNB-19 CNS
K-562 leukemia = system: K-562 leukemia
U251 CNS = system: U251 CNS
MALME-3M melanoma = system: MALME-3M melanoma
SK-MEL-28 melanoma = system: SK-MEL-28 melanoma
HCT-15 colon = system: HCT-15 colon
TK-10 renal = system: TK-10 renal
ACHN renal = system: ACHN renal
SNB-75 CNS = system: SNB-75 CNS
UACC-62 melanoma = system: UACC-62 melanoma
DU-145 prostate = system: DU-145 prostate
SK-MEL-2 melanoma = system: SK-MEL-2 melanoma
SW-620 colon = system: SW-620 colon
SF-295 CNS = system: SF-295 CNS
HOP-62 NSCLC = system: HOP-62 NSCLC
OVCAR-5 ovarian = system: OVCAR-5 ovarian
OVCAR-3 ovarian = system: OVCAR-3 ovarian
HT29 colon = system: HT29 colon
HCT-116 colon = system: HCT-116 colon
SK-OV-3 ovarian = system: SK-OV-3 ovarian
HCC-2998 colon = system: HCC-2998 colon
RPMI-8226 leukemia = system: RPMI-8226 leukemia
EKVX NSCLC = system: EKVX NSCLC
HL-60(TB) leukemia = system: HL-60(TB) leukemia
NCI-H460 lung = system: NCI-H460 lung
LOX IMVI melanoma = system: LOX IMVI melanoma
UO-31 renal = system: UO-31 renal
PC-3 prostate = system: PC-3 prostate
HOP-92 NSCLC = system: HOP-92 NSCLC
CAKI-1 renal = system: CAKI-1 renal
SN12C renal = system: SN12C renal
HS 578T breast = system: HS 578T breast
NCI-H522 lung = system: NCI-H522 lung
RXF 393 renal = system: RXF 393 renal
UACC-257 melanoma = system: UACC-257 melanoma
MCF7 breast = system: MCF7 breast
786-0 renal = system: 786-0 renal
NCI-H23 lung = system: NCI-H23 lung
MOLT-4 leukemia = system: MOLT-4 leukemia
NCI/ADR-RES ovarian = system: NCI/ADR-RES ovarian
BT-549 breast = system: BT-549 breast
KM12 colon = system: KM12 colon
T-47D breast = system: T-47D breast
COLO 205 colon = system: COLO 205 colon
M14 melanoma = system: M14 melanoma
SF-268 CNS = system: SF-268 CNS
SK-MEL-5 melanoma = system: SK-MEL-5 melanoma
CCRF-CEM leukemia = system: CCRF-CEM leukemia

NC(N)=NN=C(c1ccccc1)c1ccccc1
41.5 µM: TGI (SW-620 colon)
16 µM: TGI (SF-295 CNS)
2.94 µM: TGI (MDA-MB-435)
65.3 µM: TGI (BT-549 breast)
55.1 µM: TGI (HOP-92 NSCLC)
23.7 µM: TGI (SK-OV-3 ovarian)
20.4 µM: TGI (HCC-2998 colon)
inactive: GI50 (IGROV1 ovarian) 4.32 µM | GI50 (A549 NSCLC) 4.03 µM | GI50 (OVCAR-8 ovarian) 3.87 µM | GI50 (OVCAR-4 ovarian) 5.16 µM | GI50 (NCI-H226 lung) 14.1 µM | GI50 (A498 renal) 3.49 µM | GI50 (MDA-MB-231 breast) 4.3 µM | GI50 (MDA-MB-435) 0.612 µM | GI50 (SNB-19 CNS) 7.69 µM | GI50 (K-562 leukemia) 4.35 µM | GI50 (U251 CNS) 3.5 µM | GI50 (MALME-3M melanoma) 2.99 µM | GI50 (SK-MEL-28 melanoma) 5.82 µM | GI50 (HCT-15 colon) 3.25 µM | GI50 (TK-10 renal) 5.75 µM | GI50 (ACHN renal) 4.13 µM | GI50 (SNB-75 CNS) 3.49 µM | GI50 (UACC-62 melanoma) 4.64 µM | GI50 (DU-145 prostate) 3.45 µM | GI50 (SK-MEL-2 melanoma) 2.16 µM | GI50 (SW-620 colon) 3.63 µM | GI50 (SF-295 CNS) 2.9 µM | GI50 (HOP-62 NSCLC) 6.75 µM | GI50 (OVCAR-5 ovarian) 7.94 µM | GI50 (OVCAR-3 ovarian) 2.15 µM | GI50 (HT29 colon) 2.89 µM | GI50 (HCT-116 colon) 3.53 µM | GI50 (SK-OV-3 ovarian) 3.31 µM | GI50 (HCC-2998 colon) 4.49 µM | GI50 (RPMI-8226 leukemia) 3.97 µM | GI50 (EKVX NSCLC) 6.82 µM | GI50 (HL-60(TB) leukemia) 3.11 µM | GI50 (NCI-H460 lung) 3.51 µM | GI50 (LOX IMVI melanoma) 6.09 µM | GI50 (UO-31 renal) 4.48 µM | GI50 (PC-3 prostate) 2.95 µM | GI50 (HOP-92 NSCLC) 2.14 µM | GI50 (CAKI-1 renal) 3.77 µM | GI50 (SN12C renal) 6.25 µM | GI50 (HS 578T breast) 1.78 µM | GI50 (NCI-H522 lung) 2.38 µM | GI50 (RXF 393 renal) 1.71 µM | GI50 (UACC-257 melanoma) 9.79 µM | GI50 (MCF7 breast) 2.28 µM | GI50 (786-0 renal) 4.71 µM | GI50 (NCI-H23 lung) 6.04 µM | GI50 (MOLT-4 leukemia) 8.82 µM | GI50 (NCI/ADR-RES ovarian) 19.7 µM | GI50 (BT-549 breast) 5.51 µM | GI50 (KM12 colon) 2.53 µM | GI50 (T-47D breast) 6.65 µM | GI50 (COLO 205 colon) 1.91 µM | GI50 (M14 melanoma) 2.64 µM | GI50 (SF-268 CNS) 6.8 µM | GI50 (SK-MEL-5 melanoma) 3.06 µM | GI50 (CCRF-CEM leukemia) 4.38 µM
39.8 µM: TGI (OVCAR-8 ovarian)
17.8 µM: TGI (HT29 colon) | TGI (RPMI-8226 leukemia)
9.3 µM: TGI (M14 melanoma)
27.5 µM: TGI (K-562 leukemia)
13.9 µM: TGI (SK-MEL-2 melanoma)
51.8 µM: TGI (LOX IMVI melanoma)
3.93 µM: TGI (RXF 393 renal)
12.1 µM: TGI (HL-60(TB) leukemia)
4.19 µM: TGI (COLO 205 colon)
5.49 µM: TGI (OVCAR-3 ovarian)
20 µM: TGI (KM12 colon)
87.6 µM: TGI (IGROV1 ovarian)
36.2 µM: TGI (786-0 renal)
7.91 µM: TGI (HS 578T breast)
41.7 µM: TGI (MCF7 breast)
17.3 µM: TGI (NCI-H460 lung)
41.9 µM: TGI (UACC-257 melanoma)
19.1 µM: TGI (MALME-3M melanoma)
> 100 µM: TGI (A549 NSCLC) | TGI (NCI-H226 lung) | TGI (A498 renal) | TGI (SNB-19 CNS) | TGI (HCT-15 colon) | TGI (TK-10 renal) | TGI (ACHN renal) | TGI (SNB-75 CNS) | TGI (DU-145 prostate) | TGI (HOP-62 NSCLC) | TGI (OVCAR-5 ovarian) | TGI (EKVX NSCLC) | TGI (UO-31 renal) | TGI (PC-3 prostate) | TGI (CAKI-1 renal) | TGI (SN12C renal) | TGI (NCI-H23 lung) | TGI (NCI/ADR-RES ovarian) | TGI (T-47D breast) | TGI (SF-268 CNS) | TGI (CCRF-CEM leukemia)
93.6 µM: TGI (OVCAR-4 ovarian)
89.7 µM: TGI (HCT-116 colon)
91.7 µM: TGI (MOLT-4 leukemia)
42.5 µM: TGI (UACC-62 melanoma)
24.6 µM: TGI (U251 CNS)
40.8 µM: TGI (MDA-MB-231 breast)
14.7 µM: TGI (SK-MEL-5 melanoma)
8.51 µM: TGI (NCI-H522 lung)
36.9 µM: TGI (SK-MEL-28 melanoma)
